Reference: PubChem BioAssay AID1189 (EPA DSSTox, 2008)
Calls of active or inactive are those of the source.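 The calls were made as follows: active = a tumor-causing dose value with its tumor site reported for any sex and species group of a rodent or other animal cancer study; inconclusive = only studies judged inadequate by the national testing program; inactive = tested in at least one study, none positive.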

Experiment: DSSTox (CPDBAS) Carcinogenic Potency Database Summary SingleCellCall Results
Conditions: animal chronic carcinogenicity bioassays, CPDB summary call
Outline: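 Literature-derived summary: each substance receives an overall carcinogenic/non-carcinogenic category drawn from long-term bioassays in rats, mice, hamsters, dogs or primates, using the most positive sex-species experiment and minimal evidence criteria.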

Compound | outcome
Nc1c(Br)cc(Br)c2c1C(=O)c1ccccc1C2=O | active
c1ccc(N=Nc2ccccc2)cc1 | active
O=S(=O)(O)c1ccc(N=Nc2c(O)ccc3cc(S(=O)(=O)O)ccc23)cc1 | inactive
NC(=O)c1ccncc1 | inactive
c1ccc2c(c1)Nc1ccccc1S2 | inactive
O=CCCCC=O | inactive; active
COC(C(=O)O)c1ccccc1 (stereo not given) | inactive; active
ClC1C2(Cl)C3C4C5OC5C5C4C1(Cl)C(Cl)(C53)C2(Cl)Cl (stereo not given) | inactive
Nc1cccc2ccccc12 | active
CN=[N+](C)[O-] | active
O=S1(=O)CCCO1 | active
COc1cc(/C=C/C(=O)CC(=O)/C=C/c2ccc(O)c(OC)c2)ccc1O | inactive
CC(=O)Oc1ccccc1C(=O)O | inactive
COC(=O)C(c1ccccc1)C1CCCCN1 (stereo not given) | active
O=CNNC=O | active
Cc1cc(OC(=O)N(C)C)n(C(C)C)n1 | inactive; active
CCSC[C@H](N)C(=O)O | inactive
C[C@]12C=CC(=O)C=C1CC[C@@H]1[C@@H]2[C@@H](O)C[C@@]2(C)[C@H]1CC[C@]2(O)C(=O)CO | active
CC(C)NCC(O)c1ccc(NS(C)(=O)=O)cc1 (stereo not given) | inactive
CCN(Cc1cccc(S(=O)(=O)O)c1)c1ccc(C(=C2C=CC(=[N+](CC)Cc3cccc(S(=O)(=O)O)c3)C=C2)c2ccc(O)cc2S(=O)(=O)[O-])cc1 | inactive
CC1(C)S[C@@H]2[C@H](NC(=O)[C@H](N)c3ccccc3)C(=O)N2[C@H]1C(=O)O | inactive
CC(O)CN(CC(C)O)N=O (stereo not given) | active
C=CCN(CCO)N=O | active
COc1ccc(N)c(C)c1 | active
CCNc1nc(Cl)nc(NC(C)(C)C#N)n1 | active

Compound | outcome
O=c1[nH]cc(F)c(=O)[nH]1 | active; inactive
CC(O)CN(C)N=O (stereo not given) | active
C=C1C/C(=C/C)C(=O)O[C@@H]2CCN3CC=C(COC(=O)[C@@]1(O)CO)[C@H]23 | active; inactive
CCC(=O)C(CC(C)N(C)C)(c1ccccc1)c1ccccc1 (stereo not given) | inactive
CC(=O)Nc1ccc(OCC(O)CNC(C)C)cc1 (stereo not given) | inactive
O=NN(CC(=O)O)CC(=O)O | inactive
ClCCCl | active
CCc1cc(C(N)=S)ccn1 | active; inactive
COP(=O)(OC)OC=C(Cl)Cl | active
CC(C(=O)O)c1cccc(C(=O)c2ccccc2)c1 (stereo not given) | inactive
O=C(NCC1CCCCN1)c1cc(OCC(F)(F)F)ccc1OCC(F)(F)F (stereo not given) | inactive
CC(C)OC(=O)Nc1ccccc1 | inactive; active
c1ccc2sc(SNC3CCCCC3)nc2c1 | inactive
CCc1nc(N)nc(N)c1-c1ccc(Cl)cc1 | inactive
Cc1cc(Cl)ccc1N | active
COc1cccc2c1cc([N+](=O)[O-])c1c(C(=O)O)cc3c(c12)OCO3 | active; inactive
NNC(=O)c1ccccc1 | active
Cn1cc(C(=O)O)c(=O)c2ccc(/C=C/c3ccc([N+](=O)[O-])o3)nc21 | active; inactive
Cc1ccc([N+](=O)[O-])cc1N | active
CC1CC(C)(C)CC(OOC(C)(C)C)(OOC(C)(C)C)C1 (stereo not given) | inactive; active
O=C(O)CCCc1ccc(N(CCCl)CCCl)cc1 | active
CN1[C@@H]2CC(OC(=O)[C@@H](CO)c3ccccc3)C[C@H]1[C@@H]1O[C@@H]12 (stereo not given in full) | inactive
Cc1ccc2c(c1N)C(=O)c1ccccc1C2=O | active
CC(=O)Nc1nnc(-c2ccc([N+](=O)[O-])o2)s1 | active
Cc1cc(Cl)ccc1OCC(=O)O | inactive
